Test results from US9408393B2, “Bismuth-thiols as antiseptics for agricultural, industrial and other uses” (Microbion Corporation, priority 2010, dated 2016).
Like-named read-outs stand apart in the source and are kept apart here.

Tests used:
S. epidermidis [1] = assay: Broth dilution MIC/MBC, BT-antibiotic combinations; format: cell-based, Staphylococcus epidermidis; details: for Δ, MIC / Δ (0.05 BE), MIC: 0.05 μg/ml BisEDT; for Δ (0.1 BE), MBC: 0.1 μg/ml BisEDT
Procedure: (§1) Materials & Methods. Susceptibility studies were performed by broth dilution in 96-well tissue culture plates (Nalge Nunc International, Denmark) in accordance with NCCLS protocols (National Committee for Clinical Laboratory Standards. (1997). Methods for Dilution Antimicrobial Susceptibility Tests for Bacteria that Grow Aerobically: Approved Standard M7-A2 and Informational Supplement M100-S10. NCCLS, Wayne, Pa., USA).
(§2) Briefly, overnight bacterial cultures were used to prepare 0.5 McFarland standard suspensions, which were further diluted 1:50 (˜2×10^6 cfu/mL) in cation-adjusted Mueller-Hinton broth medium (BBL, Cockeysville, Md., USA). BTs (prepared as described above) and antibiotics were added at incremental concentrations, keeping the final volume constant at 0.2 mL. Cultures were incubated for 24 h at 37° C. and turbidity was assessed by absorption at 630 nm using an ELISA plate reader (Biotek Instruments, Winooski, Vt., USA) according to the manufacturer's recommendations. […] Viable bacterial counts (cfu/mL) were determined by standard plating on nutrient agar.
(§3) The checkerboard method was used to assess the activity of antimicrobial combinations. The fractional inhibitory concentration index (FICI) and the fractional bactericidal concentration index (FBCI) were calculated, according to Eliopoulos et al. (Eliopoulos and Moellering, (1996) Antimicrobial combinations. In Antibiotics in Laboratory Medicine (Lorian, V., Ed.), pp. 330-96, Williams and Wilkins, Baltimore, Md., USA). Synergy was defined as an FICI or FBCI index of […], no interaction at >0.5-4 and antagonism at >4 (Odds, F C (2003) Synergy, antagonism, and what the chequerboard puts between them. Journal of Antimicrobial Chemotherapy 52:1). Synergy was also defined conventionally as ≧4-fold decrease in antibiotic concentration.

[2] = system: S. epidermidis S2400-1 biofilm; assay: Biofilm prevention, BisEDT-antibiotic combinations; format: cell-based, Staphylococcus epidermidis; details: for Δ (0.05 BE), biofilm prevention: 0.05 μg/ml BisEDT
Procedure: (§4) S. epidermidis grown in TSB+2% glucose in polystyrene plates for 48 h at 37° C. Gatifloxacin (GF), clindamycin (CM), minocycline (MC), gentamicin (GM), vancomycin (VM), cefazolin (CZ), nafcillin (NC), and rifampicin (RP). […]

MRSA = assay: Combination MIC study, nafcillin or gentamicin + BisEDT, TSB with 2% glucose; format: cell-based, Staphylococcus aureus; details: for Fold reduction of antibiotic MIC90 by BisEDT: BisEDT 0.2 μg/ml; for FIC: antibiotic combined with BisEDT 0.2 μg/ml
Source text: BTs reversed the resistance of all four gentamicin-resistant isolates tested to clinically relevant concentrations [Domenico et al., 2002]. The MICs for these antimicrobial agents was reduced substantially, especially for gentamicin.

S. epidermidis biofilm = assay: Biofilm prevention concentration (BPC), BisEDT and antibiotics; format: cell-based, Staphylococcus epidermidis; details: for Change of biofilm prevention concentration (BPC): 0.05 μg/ml BisEDT
Procedure: as §4

[3] = system: S. epidermidis (methicillin-susceptible and methicillin-resistant); assay: Graft infection rat model, quantitative graft culture; format: in vivo; details: rats, s.c. Dacron graft, explanted at 7 days, 0.1 mg/l BTs, 10 mg/l RIP, 10 mg/l rifampin
Procedure: As summarized in Table 21, implants impregnated with 0.1 μg/ml BisEDT, 10 μg/ml RIP and 10 μg/ml rifampin, alone or combined were implanted s.c. into rats. Physiological solution (1 ml) containing the MS and MR strains at 2×10^7 cfu/ml was inoculated onto the graft surface using a tuberculin syringe. All grafts were explanted at 7 days following implantation and sonicated for 5 minutes in sterile saline solution to remove the adherent bacteria. Quantitation of viable bacteria was obtained by culturing dilutions on blood agar plates. The limit of detection was approximately 10 cfu/cm^2.

S. aureus = assay: Broth dilution MIC/MBC, BT-antibiotic combinations; format: cell-based, Staphylococcus aureus; details: for MIC: Staphylococcus aureus
Procedure: as §1, §2, §3

S. epidermidis [4] = assay: Growth inhibition (MIC) and MBC, BisEDT and antibiotics; format: cell-based, Staphylococcus epidermidis
Source text: Results are expressed as the mean change in MIC (dilution steps) with increasing BisEDT (n=3). See legend in FIG. 5 for antibiotic definitions.
The MIC change was most pronounced for clindamycin and gentamicin, followed by vancomycin, cefazolin, minocycline, gatifloxacin and nafcillin, with rifampicin unaffected.
Minimum bactericidal concentration (MBC) for most antibiotics tested against S. epidermidis decreased slightly with subMIC BisEDT. […] Clindamycin is a bacteriostatic agent, which explains its lack of bactericidal activity. Cefazolin resistance was reversed with respect to the MBC [Domenico et al., 2003]. These effects were additive.

MRSA clinical isolates [5] = assay: Broth dilution MIC in BHIG/X medium with subMIC BisEDT; format: cell-based, Staphylococcus aureus; details: 12 MRSA clinical isolates, BHIG/X, mean ± SD
Procedure: (§5) Broth dilution antimicrobial susceptibility studies were performed against 12 MRSA strains using several antibiotics combined with subMIC levels of BisEDT (Table 18). Both the biofilm-prevention concentration (BPC) and the minimum inhibitory concentration (MIC) were determined in a special biofilm culture medium (BHIG/X). […] These strains were already sensitive to vancomycin, but were made considerably moreso in the presence of subMIC BisEDT.
In this particular study, the data indicated synergy between BisEDT and cefepime (FIC<0.5), with many of the isolates at the breakpoint for sensitivity.

[6] = system: MRSA clinical isolates biofilm; assay: Biofilm-prevention concentration (BPC) in BHIG/X medium with subMIC BisEDT; format: cell-based, Staphylococcus aureus; details: 12 MRSA clinical isolates, mean ± SD
Procedure: as §5

[7] = system: lawn of MRSA (Methicillin-resistant S. aureus); assay: Antibiotic-soaked discs on bacterial lawn with and without BisEDT; format: cell-based, Staphylococcus aureus; details: antibiotic discs combined with BisEDT 0.05 μg/ml
Procedure: FIGS. 4A and 4B show the subinhibitory BisEDT reversing antibiotic-resistance to several antibiotics. Effects of antibiotics with and without BisEDT (0.05 μg/ml) on a lawn of MRSA (Methicillin-resistant S. aureus) is shown. […] [GM=gentamicin, CZ=cefazolin, FEP=cefepime, IPM=imipenim, SAM=ampicillin/sulbactam, LVX=levofloxacin.

MRSA clinical isolates [8] = details: cited from earlier work
[9] = S. epidermidis ATCC 35984, BisEDT 0.0 μg/ml
[10] = S. epidermidis ATCC 35984, BisEDT 0.05 μg/ml
[11] = S. epidermidis S2400-1, BisEDT 0 μg/ml
[12] = S. epidermidis S2400-1, BisEDT 0.0 μg/ml
[13] = S. epidermidis S2400-1, BisEDT 0.05 μg/ml
[14] = S. epidermidis S2400-1, BisEDT 0.1 μg/ml
[15] = methicillin-resistant S. epidermidis
[16] = methicillin-susceptible S. epidermidis
[17] = S. aureus ATCC 25923, BE = 0.2 μg/ml BisEDT

Compound	Δ, MIC (S. epidermidis [1]; S. epidermidis ATCC 35984)	MIC (S. epidermidis [1]; [9])	MIC (S. epidermidis [1]; [10])	Δ (0.05 BE), MIC (S. epidermidis [1]; S. epidermidis S2400-1)	Δ (0.1 BE), MBC (S. epidermidis [1]; S. epidermidis S2400-1)	MIC (S. epidermidis [1]; [11])	MBC (S. epidermidis [1]; [12])	MIC (S. epidermidis [1]; [13])	MBC (S. epidermidis [1]; [14])	MIC (S. epidermidis [1]; [14])	Δ (0.05 BE), biofilm prevention [2]	Biofilm Prevention (antibiotic concentration) ([2]; BisEDT 0 μg/ml)	Biofilm Prevention (antibiotic concentration) ([2]; BisEDT 0.05 μg/ml)	Biofilm Prevention (antibiotic concentration) ([2]; BisEDT 0.1 μg/ml)	Fold reduction of antibiotic MIC90 by BisEDT (MRSA)	FIC (MRSA)	Change of biofilm prevention concentration (BPC) (S. epidermidis biofilm)	Quantitative graft culture [3, 15]	Quantitative graft culture [3, 16]	Reduction in MBC with subMIC BisEDT (S. epidermidis [4])	other results
CCOc1ccc2ccccc2c1C(=O)N[C@@H]1C(=O)N2[C@@H]1SC(C)(C)[C@@H]2C(=O)O [Nafcillin]	3.2	16.00 µg/mL	5.00 µg/mL	0.89	2.00	171 µg/mL	256 µg/mL	192 µg/mL	128 µg/mL	68 µg/mL	0.8	48 µg/mL	64 µg/mL	8 µg/mL	over 4 fold	0.74	remained unaffected				
bismuth-1,2-ethanedithiol [BisEDT]																		6.2 × 10^2 ± 2.3 × 10^2 cfu/cm^2	5.8 × 10^2 ± 0.9 × 10^2 cfu/cm^2		
CO[C@H]1/C=C/O[C@@]2(C)Oc3c(C)c(O)c4c(O)c(c(/C=N/N5CCN(C)CC5)c(O)c4c3C2=O)NC(=O)/C(C)=C\C=C\[C@H](C)[C@H](O)[C@@H](C)[C@@H](O)[C@@H](C)[C@H](OC(C)=O)[C@@H]1C [Rifampin]	1.5	0.021 µg/mL	0.014 µg/mL	0.75	0.43	0.03 µg/mL	0.03 µg/mL	0.04 µg/mL	0.07 µg/mL	0.04 µg/mL	0.7	0.03 µg/mL	0.04 µg/mL	0.04 µg/mL			remained unaffected	7.6 × 10^4 ± 2.1 × 10^4 cfu/cm^2	5.9 × 10^3 ± 1.8 × 10^3 cfu/cm^2	remained largely unaffected	Δ (S. aureus; MRSA S2446-3, BE = 0.2 μg/ml BisEDT): 1.0; Synergy (S. aureus; [17]): + (Synergy was also defined conventionally as ≧4-fold decrease in antibiotic concentration); Δ (S. aureus; [17]): 13.0; MIC (S. aureus; ATCC25923, S. aureus ATCC 25923, antibiotic alone, read-out: MIC): 0.033 µg/mL; MIC (S. aureus; ATCC25923, S. aureus ATCC 25923, with 0.2 μg/ml BisEDT, read-out: MIC + BE): 0.003 µg/mL; MIC (S. aureus; MRSA, MRSA S2446-3, antibiotic alone, read-out: MIC): 2.5 µg/mL; MIC (S. aureus; MRSA, MRSA S2446-3, with 0.2 μg/ml BisEDT, read-out: MIC + BE): 2.5 µg/mL; MIC change (growth inhibition) with BisEDT (S. epidermidis [4]; 0.1 μg/ml (0.5 μM) BisEDT): unaffected
gentamicin	13.3	213.33 µg/mL	16.00 µg/mL	6.40	6.00	2048 µg/mL	1536 µg/mL	320 µg/mL	256 µg/mL	80 µg/mL	3.9	555 µg/mL	144 µg/mL	12 µg/mL	over 10 fold	0.6				4- to 16 fold	Synergy, MBC (S. epidermidis [1]; S. epidermidis S2400-1): + (Synergy was also defined conventionally as ≧4-fold decrease in antibiotic concentration); Synergy, MIC (S. epidermidis [1]; S. epidermidis S2400-1): + (Synergy was also defined conventionally as ≧4-fold decrease in antibiotic concentration); Synergy, biofilm prevention [2]: borderline; MIC (MRSA clinical isolates [5]; BisEDT 0 μg/mL): 81 ± 40 µg/mL; MIC (MRSA clinical isolates [5]; BisEDT 0.025 μg/mL): 60 ± 27 µg/mL; MIC (MRSA clinical isolates [5]; BisEDT 0.05 μg/mL): 58 ± 30 µg/mL; MIC (MRSA clinical isolates [5]; BisEDT 0.1 μg/mL): 48 ± 31 µg/mL; BPC ([6]; BisEDT 0 μg/mL): 81 ± 41 µg/mL; BPC ([6]; BisEDT 0.025 μg/mL): 63 ± 30 µg/mL; BPC ([6]; BisEDT 0.05 μg/mL): 53 ± 31 µg/mL; BPC ([6]; BisEDT 0.1 μg/mL): 33 ± 25 µg/mL; Antibiotic action on MRSA lawn with subMIC BisEDT [7]: enhanced antibiotic action; Fold reduction of BPC in presence of subMIC BisEDT (S. epidermidis biofilm; TSB + 2% glucose, 48 h): 4 fold; MIC Standards, R (resistance) (MRSA clinical isolates [8]; Standard MIC breakpoint for resistance): ≧16 μg/ml; MIC Standards, S (antibiotic sensitivity) (MRSA clinical isolates [8]; Standard MIC breakpoint for sensitivity): ≦4 μg/ml
